Measurements from patent US20130225548A1, “Pyridine Derivative and Medicinal Agent” (NIPPON SHINYAKU CO., LTD., priority 2010, published 2013).
Where a name gives a salt, the structure may show the parent alone.

Biological target: T1, Syk tyrosine kinase (Homo sapiens, UniProt P43405)
T1 construct: purchased Carna Biosciences, Inc
Assay: Test for Syk tyrosine kinase inhibitory activity (ELISA)
Type: biochemical
Settings: Syk tyrosine kinase (Carna Biosciences), 25 μM ATP in substrate solution, 30° C. 1 hour, n=2; read-out: Evaluation (IC50, concentration inhibiting the tyrosine kinase activity at 50%)
Experimental: Test Example 1: Test for Syk Tyrosine Kinase Inhibitory Activity
1. Preparation of Test Substance
A test substance was prepared at 10 mM in dimethyl sulfoxide (DMSO), and further diluted with DMSO to concentrations of 1000, 300, 100, 30, 10, 3, 1, 0.3, 0.1, 0.03, and 0.01 μM. The resulting solutions were further diluted to 20-fold with an assay buffer, whereby test substance solutions were prepared. As a negative control, a solution obtained by diluting DMSO to 20-fold with an assay buffer was used. As the assay buffer, a buffer containing 15 mM Tris-HCl (pH 7.5), 0.01 (v/v) % Tween-20, and 1 mM dithiothreitol was used.
2. Measurement of Syk Tyrosine Kinase Inhibitory Activity
The activity was measured using the ELISA method. Each of the test substance solutions was added to a streptavidine-coated 96-well place (DELFIA Strip Plate 8×12 wells, PerkinElmer Co., Ltd,) at 10 μL per well (n=2), and a substrate solution (625 nM biotinylated peptide substrate, 25 μM ATP, 25 mM MgCl2, 15 mM Tris-HCl (pH 7.5), 0.01 (v/v) % Tween-20, 1 mM dithiothreitol) was added to the plate at 20 μL per well, and the resulting mixture was stirred. Finally, Syk tyrosine kinase (Carna Biosciences, Inc.) (previously diluted to 0.025 nM with the assay buffer) was added to the plate at 20 μL per well, and the resulting mixture was stirred. A reaction was allowed to proceed at 30° C. for 1 hour. After the plate was washed 4 times with a washing buffer (50 mM Tris-HCl (pH 7.5, 150 mM NaCl, 0.02 (v/v) % Tween-20), a blocking buffer (0.1% bovine serum albumin, 50 mM Tris-HCl (pH 7.5), 150 mM NaCl, 0.02 (v/v) % Tween-20) was added to the plate at 150 μL per well, and blocking was performed at 30° C. for 30 minutes. Then, the blocking buffer was removed, and a horseradish peroxidase-labeled anti-phosphorylated tyrosine antibody (BD Biosciences, Inc.) (previously diluted to 10000-fold with the blocking buffer) was added to the plate at 100 μL per well, and the plate was incubated at 30° C. for 30 minutes. After the plate was washed 4 times with the washing buffer, a 3,3′,5,5′-tetramethylbenzidine solution (Sigma-Aldrich Co., Ltd.) was added to the plate at 100 μL per well to develop the color for 10 minutes. The reaction was stopped by adding 0.1 M sulfuric acid at 100 μL per well. The absorbance at 450 nm was measured using a microplate reader (Multiskan F C, Thermo Fisher Scientific K,K.).
3. Analysis of Measurement Results
A non-linear regression analysis was performed for the measured absorbance using the SAS system (SAS institute. Inc.), and a concentration of each of the test substances: inhibiting the tyrosine kinase activity at 50% (IC50 ) was calculated. A case where IC50 is […] was evaluated as ***, a case where IC50 is 5 nM or more and less than 50 nM was evaluated as **, and a case where IC50 is 50 nM or more and less than 500 nM was evaluated as *, which are shown in the column of evaluation item.

Row | Compound | IC50 [µM]
1 | 2-({4-cyclopropyl-6-[2-ethyl-1-(trans-4-hydroxycyclohexyl)-1H-benzimidazol-6-yl]pyridin-2-yl}amino)pyridine-4-carbonitrile hydrochloride [Example 157] | < 0.005
2 | 2-({6-[1-(4-cyanopiperidin-1-yl)isoquinolin-7-yl]-4-cyclopropylpyridin-2-yl}amino)pyridine-4-carbonitrile hydrochloride [Example 170] | 0.005 to 0.05
3 | N#Cc1ccnc(Nc2cc(C3CC3)cc(-c3ccc(N4CCOCC4)nc3)n2)c1 [Example 1, 2-{[4-cyclopropyl-6′-(morpholin-4-yl)-2,3′-bipyridin-6-yl]amino}pyridine-4-carbonitrile hydrochloride] | 0.005 to 0.05
4 | N#Cc1ccnc(Nc2cc(C3CC3)cc(-c3ccc(NCCO)nc3)n2)c1 [Example 2, 2-({4-cyclopropyl-6′-[(2-hydroxyethyl)amino]-2,3′-bypyridin-6-yl}amino)pyridine-4-carbonitrile hydrochloride] | 0.005 to 0.05
5 | N#Cc1ccnc(Nc2cc(C3CC3)cc(-c3ccc(N4CCS(=O)(=O)CC4)nc3)n2)c1 [Example 3, 2-{[4-cyclopropyl-6′-(1,1-dioxidethiomorpholin-4-yl)-2,3′-bipyridin-6-yl]amino}pyridine-4-carbonitrile hydrochloride] | < 0.005
6 | N#Cc1ccnc(Nc2cc(C3CC3)cc(-c3ccc(N4CCC(=O)CC4)nc3)n2)c1 [Example 4, 2-{[4-cyclopropyl-6′-(4-oxopiperidin-1-yl)-2,3′-bipyridin-6-yl]amino}pyridine-4-carbonitrile hydrochloride] | 0.005 to 0.05
7 | N#Cc1ccnc(Nc2cc(C3CC3)cc(-c3ccc(N4CCNC(=O)C4)nc3)n2)c1 [Example 5, 2-{[4-cyclopropyl-6′-(3-oxopiperazin-1-yl)-2,3′-bipyridin-6-yl]amino}pyridine-4-carbonitrile hydrochloride] | 0.005 to 0.05
8 | N#Cc1ccnc(Nc2cc(C3CC3)cc(-c3ccc(N4CC(O)C4)nc3)n2)c1 [Example 6, 2-{[4-cyclopropyl-6′-(3-hydroxyazetidin-1-yl)-2,3′-bipyridin-6-yl]amino}pyridine-4-carbonitrile hydrochloride] | 0.005 to 0.05
9 | N#Cc1ccnc(Nc2cc(C3CC3)cc(-c3ccc(N4CCN(CC(N)=O)CC4)nc3)n2)c1 [Example 7, 2-(4-{6-[(4-cyanopyridin-2-yl)amino]-4-cyclopropyl-2,3′-bipyridin-6′-yl}piperazin-1-yl)acetamide hydrochloride] | 0.05 to 0.5
10 | N#Cc1ccnc(Nc2cc(C3CC3)cc(-c3ccc(N4C[C@H](O)CC4=O)nc3)n2)c1 [Example 8, 2-({4-cyclopropyl-6′-[(4R)-4-hydroxy-2-oxopyrrolidin-1-yl]-2,3′-bipyridin-6-yl}amino)pyridine-4-carbonitrile hydrochloride] | 0.05 to 0.5
11 | CC(=O)N1CCCN(c2ccc(-c3cc(C4CC4)cc(Nc4cc(C#N)ccn4)n3)cn2)CC1 [Example 9, 2-{[6′-(4-acetyl-1,4-diazepan-1-yl)-4-cyclopropyl-2,3′-bipyridin-6-yl]amino}pyridine-4-carbonitrile hydrochloride] | 0.05 to 0.5
12 | N#Cc1ccnc(Nc2cc(C3CC3)cc(-c3ccc(N4CCCN(C(N)=O)CC4)nc3)n2)c1 [Example 10, 4-{6-[(4-cyanopyridin-2-yl)amino]-4-cyclopropyl-2,3′-bipyridin-6′-yl}-1,4-diazepane-1-carboxamide hydrochloride] | 0.005 to 0.05
13 | N#Cc1ccnc(Nc2cc(C3CC3)cc(-c3ccc(N4C[C@@H](O)CC4=O)nc3)n2)c1 [Example 11, 2-({4-cyclopropyl-6′-[(4S)-4-hydroxy-2-oxopyrrolidin-1-yl]-2,3′-bipyridin-6-yl}amino)pyridine-4-carbonitrile hydrochloride] | 0.05 to 0.5
14 | N#Cc1ccnc(Nc2cc(C3CC3)cc(-c3ccc(N[C@H]4CC[C@H](O)CC4)nc3)n2)c1 [Example 12, 2-({4-cyclopropyl-6′-[(trans-4-hydroxycyclohexyl)amino]-2,3′-bipyridin-6-yl}amino)pyridine-4-carbonitrile hydrochloride] | 0.05 to 0.5
15 | Cn1cnc2cc(-c3cc(C4CC4)cc(Nc4cc(C#N)ccn4)n3)ccc21 [Example 15, 2-{[4-cyclopropyl-6-(1-methyl-1H-benzimidazol-5-yl)pyridin-2-yl]amino}pyridine-4-carbonitrile hydrocloride] | 0.005 to 0.05

The next lines start with the values.

Row | IC50 [µM] | Compound
16 | 0.05 to 0.5 | CC(=O)O[C@@H]1CCC[C@H]1n1cnc2ccc(-c3cc(C4CC4)cc(Nc4cc(C#N)ccn4)n3)cc21 (relative stereo) [Example 141, trans-2-(6-{6-[(4-cyanopyridin-2-yl)amino]-4-cyclopropylpyridin-2-yl}-1H-benzimidazol-1-yl)cyclopentyl acetate hydrochloride]
17 | 0.005 to 0.05 | N#Cc1ccnc(Nc2cc(C3CC3)cc(-c3ccc4ncn([C@@H]5CCCC[C@H]5O)c4c3)n2)c1 (relative stereo) [Example 146, 2-[(4-cyclopropyl-6-{1[trans-2-hydroxycyclohexyl]-1H-benzimidazol-6-yl}pyridin-2-yl)amino]pyridine-4-carbonitrile hydrochloride]
18 | 0.05 to 0.5 | N#Cc1ccnc(Nc2cc(C3CC3)cc(-c3ccc4c(c3)ncn4[C@@H]3CCCC[C@H]3O)n2)c1 (relative stereo) [Example 152, 2-[(4-cyclopropyl-6-{1-[trans-2-hydroxycyclohexyl]-1H-benzimidazol-5-yl}pyridin-2-yl)amino]pyridine-4-carbonitrile hydrochloride]
19 | 0.005 to 0.05 | N#Cc1ccnc(Nc2cc(C3CC3)cc(-c3ccc4c(c3)ncn4CCN)n2)c1 [Example 13, 2-({6-[1-(2-aminoethyl)-1H-benzimidazol-5-yl]-4-cyclopropylpyridin-2-yl}amino)pyridine-4-carbonitrile hydrochloride]
20 | 0.005 to 0.05 | N#Cc1ccnc(Nc2cc(C3CC3)cc(-c3ccc4c(c3)ncn4[C@H]3CC[C@H](O)CC3)n2)c1 [Example 14, 2-({4-cyclopropyl-6-[1-(trans-4-hydroxycyclohexyl)-1H-benzimidazol-5-yl]pyridin-2-yl}amino)pyridine-4-carbonitrile hydrochloride]
21 | 0.005 to 0.05 | N#Cc1ccnc(Nc2cc(C3CC3)cc(-c3ccc4c(c3)ncn4C3CCOCC3)n2)c1 [Example 16, 2-({4-cyclopropyl-6-[1-tetrahydro-2H-pyran-4-yl)-1H-benzimidazol-5-yl]pyridin-2-yl}amino)pyridine-4-carbonitrile hydrochloride]
22 | 0.05 to 0.5 | N#Cc1ccnc(Nc2cc(C3CC3)cc(-c3ccc(C#N)nc3)n2)c1 [Example 17, 6-[(4-cyanopyridin-2-yl)amino]-4-cyclopropyl-2,3′-bipyridine-6′-carbonitrile hydrochloride]
23 | 0.005 to 0.05 | N#Cc1ccnc(Nc2cc(C3CC3)cc(-c3ccc(N)nc3)n2)c1 [Example 18, 2-[(6′-amino-4-cyclopropyl-2,3′-bipyridin-6-yl)amino]pyridine-4-carbonitrile hydrochloride]
24 | < 0.005 | N#Cc1ccnc(Nc2cc(C3CC3)cc(-c3ccc(NCCN)nc3)n2)c1 [Example 19, 2-({6′-[(2-aminoethyl)amino]-4-cyclopropyl-2,3′-bipyridin-6-yl}amino)pyridine-4-carbonitrile dihydrochloride]
25 | 0.005 to 0.05 | N#Cc1ccnc(Nc2cc(C3CC3)cc(-c3ccc(N4CCC(O)CC4)nc3)n2)c1 [Example 20, 2-{[4-cyclopropyl-6′-(4-hydroxypiperidin-1-yl)-2,3′-bipyridin-6-yl]amino}pyridine-4-carbonitrile hydrochloride]
26 | 0.005 to 0.05 | COCCNc1ccc(-c2cc(C3CC3)cc(Nc3cc(C#N)ccn3)n2)cn1 [Example 21, 2-({4-cyclopropyl-6′-[(2-methoxyethyl)amino]-2,3′-bipyridin-6-yl}amino)pyridine-4-carbonitrile hydrochloride]
